Test results as given in patent US20150087722A1, “TREATMENT FOR BREAST TUMOR CELL METASTASIS” (China Medical University, priority 2012, published 2015).
Where two headings read alike, the source gives them in different places.

Experiments:
[1] = system: tumor inoculated nude mice; experiment: histopathological examination (H&E staining) of tumor inoculated nude mice; format: in vivo; conditions: 0.75 mg/Kg everyday, magnification 400×
Experimental: In the histopathological examination of tumor inoculated nude mice, the inoculated nude mice were examined through a histopathological H&E staining method. The tumor and internal organs were embedded in paraffin and sliced into slides having a thickness of […] by a slicer. Then after deparaffinizing, rehydrating and renaturating, the slide was washed with water twice and stained with Hematoxylin solution for 30-50 s. Then the slide was treated with 0.1% acetic acid-water and washed with water twice. At last the slide was stained with Eosin for 100 s and mounted with Histoclad.

[2] = system: human normal breast cells MCF-10A; experiment: MTT cell viability assay; format: cell-based
Experimental: (§1) The breast tumor cells (MDA-MB-231, MDA-MB-435, MDA-MB-453, MDA-MB-468 and MCF-7) were commercially obtained from the bioresource collection and research center (BCRC), and were cultured in a 10% FBS-DMEM culture medium (i.e., a DMEM culture medium including 10% fetal bovine serum (FBS)). The human breast cell MCF-10A was cultured in a 5% FBS-DMEM culture medium (including F12, insulin, hydrocortisol and epidermal growth factor). An environment of 5% CO2 was kept in the incubator at a constant temperature of 37° C. When a certain number of cells were generated in culture, the culture medium was removed after being centrifuged for 10 min at a rate of 900 rpm. The culture medium was replaced in 24 h before the experiment, and the number of cells was counted by a hemocytometer.
(§2) The cell viability was determined by a method of […] (MTT assay). The test method for assaying cell viability refers to steps provided by Parada-Turska et al.
(§3) The breast tumor cells MDA-MB-231 were inoculated in a 24-well plate (2.5×10^5 cells/well), and the next day after cells were adhered to the wall of the plate, the cells were washed with PBS. 1% FBS-DMEM culture medium was then added so as to synchronize cells. The next day compound II having different concentrations were added into the wells, and the cells were subsequently cultured in an atmosphere of 5% CO2 at 37° C. for 24 h. The cells were washed with PBS once, and 400 μl MTT agent was added in each well so as to react for 4 h. Then 400 μl 10% SDS was added in each well so as to react for 12 h. 200 μl supernatant was taken from the well and then added into a 96-well microplate, so as to measure the absorbance at 570 nm.

breast tumor cells MCF-7 = experiment: MTT cell viability assay; format: cell-based; conditions: Homo sapiens, MCF7
Experimental: as §1, §2, §3

[3] = system: Liver Tumor Cell (Huh-7 cell strain); experiment: MTT cell viability assay; format: cell-based; conditions: Homo sapiens
[4] = system: PI3K and Akt in breast tumor cells; experiment: western blotting of PI3K and Akt and phosphorylation; format: cell-based, human; conditions: 2 μM, 0-120 min
Experimental: The steps of western blotting include: washing cells with PBS twice at 4° C.; adding a lysis buffer and rubbing the cells by a rubbr policeman so as to lyse cells; putting the lysed cell solution into a 1.5 ml microcentrifuge tube and shaking for 1 min; centrifuging at 12000 rpm for 10 min and taking the supernatant; measuring concentration of the protein through a Bio-Rad protein assay kit; and storing the remained extracted protein solution at −70° C.; taking 100 μg protein solution and adding a SDS/protein loading buffer having the same volume, where the SDS/protein loading buffer has a concentration two times larger than the protein solution; boiling the mixture of the protein solution and the SDS/protein loading buffer at 100° C. for 10 min; cooling and loading the protein samples in each hole of gel; adjusting the voltage to 100 V and running the protein samples on the gel until the tracking dye in the sample buffer reaches the bottom of the gel; and subsequently transferring the protein from the gel using electrophoresis. […] Then luminescence image equipment was used, where the PVDF was placed onto a black metal plate by a plastic pincer and the face including protein was upwards, a 1:1 mixed Chemiluminesent Substrate was added into the membrane and the exposure time depends on the fluorescence intensity of antibodies. […]

- IC50 (breast tumor cells MCF-7; 0-40 μM for 24 h, FIG. 1A, read-out: IC50 for inhibiting the MCF-7): ~30 µM
- IC50 (breast tumor cells MCF-7; viability, MCF-7 cell strain, Table 1, read-out: IC50): 27.7 µM
- IC50 [3]: 15.1 µM
SMILES: COC1=C(OC)C(=O)C(C)=C(C)C1=O [compound II]
- mitosis state of tumor cells [1]: low mitosis state
- IC50 ([2]; MCF-10A, 0-40 μM for 24 h, FIG. 1A, read-out: IC50 for inhibiting the normal breast cells MCF-10A): ~25 µM
- IC50 ([2]; viability, MCF-10A cell strain, Table 1, read-out: IC50): 24.1 µM
- phosphorylation of PI3K and Akt [4]: probably inhibited
- protein expression of PI3K and Akt [4]: not affected
